Results reported in patent publication US20230312587A1, “PTERIDINONE COMPOUNDS AND USES THEREOF” (Vertex Pharmaceutical Incorporated, priority 2018, published 2023).

What follows are compounds tested on Colo205-TCF/LEF-Luciferase (Luc) tumor (assay: In vivo inhibition of TCF/LEF reporter activity in Colo-205 tumors). Details: TCF/LEF luciferase reporter in Colo-205 tumors, nu/nu mice, oral gavage.
Design: concentration or dose not given beside the values
Method in brief: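 Female nu/nu mice carried subcutaneous Colo205-TCF/LEF-luciferase tumours (200–500 mm^3), n=4 per group. Compound was given by oral gavage in 1:3:5:1 EtOH:DMSO:PEG-400:H2O at 10 ml/kg, with vehicle as control. Luciferase activity in tumour lysates (Steady-Glo) was normalised to BCA protein.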

SMILES | Percent Remaining Activity at 8 hrs after Dosing
Cc1nc(N[C@H]2CC[C@H](Oc3ccc(C(F)(F)F)nc3)C2)nc2c1NC(=O)[C@H](C)N2C (single isomer, unassigned) [Compound 377] | 33%
Cc1nc(NCc2cnn(Cc3ccc(F)cc3)c2)nc2c1NC(=O)[C@H](C)N2C [Compound 4, (7S)-2-(((1-(4-fluorobenzyl)-1H-pyrazol-4-yl)methyl)amino)-4,7,8-trimethyl-7,8-dihydropteridin-6(5H)-one] | 23%
COc1c(F)cc(Cn2cc(CNc3nc(C)c4c(n3)N(C)[C@@H](C)C(=O)N4)cn2)cc1F [Compound 46, (7S)-2-(((1-(3,5-difluoro-4-methoxybenzyl)-1H-pyrazol-4-yl)methyl)amino)-4,7,8-trimethyl-7,8-dihydropteridin-6(5H)-one] | 20%
Cc1nc(NCc2cnn(Cc3ccc(F)nc3)c2)nc2c1NC(=O)[C@H](C)N2C [Compound 77] | 30%
Cc1nc(NCc2cnn(Cc3cccc(C(C)C)c3)c2)nc2c1NC(=O)[C@H](C)N2C [Compound 80, (7S)-2-(((1-(3-isopropylbenzyl)-1H-pyrazol-4-yl)methyl)amino)-4,7,8-trimethyl-7,8-dihydropteridin-6(5H)-one] | 34%
Cc1nc(NCc2cnn(Cc3cc(F)c(F)c(F)c3)c2)nc2c1NC(=O)[C@H](C)N2C [Compound 122, (7S)-4,7,8-trimethyl-2-(((1-(3,4,5-trifluorobenzyl)-1H-pyrazol-4-yl)methyl)amino)-7,8-dihydropteridin-6(5H)-one] | 16%
Cc1nc(NCc2cnn(Cc3ccc(C(F)(F)F)cc3)c2)nc2c1NC(=O)[C@H](C)N2C [Compound 149, (7S)-4,7,8-trimethyl-2-(((1-(4-(trifluoromethyl)benzyl)-1H-pyrazol-4-yl)methyl)amino)-7,8-dihydropteridin-6(5H)-one] | 17%
Cc1nc(NCc2cnn([C@@H]3C[C@@H]3c3ccc(F)cc3)c2)nc2c1NC(=O)[C@H](C)N2C [Compound 154, (7S)-2-(((1-((1R,2R)-2-(4-fluorophenyl)cyclopropyl)-1H-pyrazol-4-yl)methyl)amino)-4,7,8-trimethyl-7,8-dihydropteridin-6(5H)-one] | 24%
Cc1nc(NCc2cnn(Cc3cc(C(F)(F)F)nn3C)c2)nc2c1NC(=O)[C@H](C)N2C [Compound 160, (7S)-4,7,8-trimethyl-2-(((1-((1-methyl-3-(trifluoromethyl)-1H-pyrazol-5-yl)methyl)-1H-pyrazol-4-yl)methyl)amino)-7,8-dihydropteridin-6(5H)-one] | 18%
Cc1nc(NCc2cnn([C@@H](C)c3ccc(C(F)(F)F)nc3)c2)nc2c1NC(=O)[C@H](C)N2C [Compound 174, (7S)-4,7,8-Trimethyl-2-(((1-((S)-1-(6-(trifluoromethyl)pyridin-3-yl)ethyl)-1H-pyrazol-4-yl)methyl)amino)-7,8-dihydropteridin-6(5H)-one] | 22%
CC[C@H]1C(=O)Nc2c(C)nc(NCc3cnn(Cc4ccc(C(F)(F)F)nc4)c3)nc2N1C [Compound 186, (7S)-7-ethyl-4,8-dimethyl-2-(((1-((6-(trifluoromethyl)pyridin-3-yl)methyl)-1H-pyrazol-4-yl)methyl)amino)-7,8-dihydropteridin-6(5H)-one] | 23%
Cc1nc(C(F)(F)F)ccc1Cn1cc(CNc2nc(C)c3c(n2)N(C)[C@@H](C)C(=O)N3)cn1 [Compound 188, (S)-4,7,8-trimethyl-2-(((1-((2-methyl-6-(trifluoromethyl)pyridin-3-yl)methyl)-1H-pyrazol-4-yl)methyl)amino)-7,8-dihydropteridin-6(5H)-one] | 15%
Cc1nc(NCc2cnn(Cc3ccnc(C(F)(F)F)c3)c2)nc2c1NC(=O)[C@H](C)N2C [Compound 207, (7S)-4,7,8-trimethyl-2-(((1-((2-(trifluoromethyl)pyridin-4-yl)methyl)-1H-pyrazol-4-yl)methyl)amino)-7,8-dihydropteridin-6(5H)-one] | 18%
Cc1nc(N[C@H]2C[C@H](Oc3cc(F)c(F)c(F)c3)C2)nc2c1NC(=O)[C@H](C)N2C [Compound 246, (7S)-4,7,8-trimethyl-2-((trans-3-(3,4,5-trifluorophenoxy)cyclobutyl)amino)-7,8-dihydropteridin-6(5H)-one] | 18%
Cc1nc(N[C@H]2C[C@@H](COc3cc(F)c(F)c(F)c3)C2)nc2c1NC(=O)[C@H](C)N2C [Compound 257, (7S)-4,7,8-Trimethyl-2-((cis-3-((3,4,5-trifluorophenoxy)methyl)cyclobutyl)-amino)-7,8-dihydropteridin-6(5H)-one] | 30%
Cc1nc(N[C@@H]2CC[C@@H](Oc3cc(F)c(F)c(F)c3)C2)nc2c1N(C)C(=O)[C@H](C)N2C [Compound 272, (S)-4,5,7,8-tetramethyl-2-(((1R,3R)-3-(3,4,5-trifluorophenoxy)cyclopentyl)amino)-7,8-dihydropteridin-6(5H)-one] | 14%
Cc1nc(N[C@H]2C[C@H](Oc3ccc(C(F)(F)F)nc3)C2)nc2c1NC(=O)[C@H](C)N2C [Compound 324, (7S)-4,7,8-trimethyl-2-((trans-3-((6-(trifluoromethyl)pyridin-3-yl)oxy)cyclobutyl)amino)-7,8-dihydropteridin-6(5H)-one] | 16%
Cc1nc(N[C@H]2C[C@@H](Sc3cc(F)c(F)c(F)c3)C2)nc2c1NC(=O)[C@H](C)N2C [Compound 332, (7S)-4,7,8-trimethyl-2-((cis-3-((3,4,5-trifluorophenyl)thio)cyclobutyl)amino)-7,8-dihydropteridin-6(5H)-one] | 51%
Cc1nc(N[C@H]2C[C@H](Oc3ccnc(C(F)(F)F)c3)C2)nc2c1NC(=O)[C@H](C)N2C [Compound 335, (7S)-4,7,8-trimethyl-2-((trans-3-((2-(trifluoromethyl)pyridin-4-yl)oxy)cyclobutyl)amino)-7,8-dihydropteridin-6(5H)-one] | 18%
Cc1nc(NCc2cnn(Cc3ccc(C(F)(F)F)nc3)c2)nc2c1NC(=O)[C@H](C(C)C)N2C [Compound 383, (7S)-7-isopropyl-4,8-dimethyl-2-(((1-((6-(trifluoromethyl)pyridin-3-yl)methyl)-1H-pyrazol-4-yl)methyl)amino)-7,8-dihydropteridin-6(5H)-one] | 36%
Cc1nc(NCc2cnn(Cc3ccc(F)nc3)c2)nc2c1NC(=O)[C@H](C(C)C)N2C [Compound 384, (7S)-2-(((1-((6-fluoropyridin-3-yl)methyl)-1H-pyrazol-4-yl)methyl)amino)-7-isopropyl-4,8-dimethyl-7,8-dihydropteridin-6(5H)-one] | 14%
Cc1nc(NCc2cnn(Cc3ccc(C(F)(F)F)nc3)c2)nc2c1NC(=O)[C@H](C)N2C(C)C [Compound 385, (7S)-8-isopropyl-4,7-dimethyl-2-(((1-((6-(trifluoromethyl)pyridin-3-yl)methyl)-1H-pyrazol-4-yl)methyl)amino)-7,8-dihydropteridin-6(5H)-one] | 25%
Cc1nc(NCc2cnn(Cc3ccc(C(F)(F)F)nc3)c2)nc2c1NC(=O)[C@H](C1CC1)N2C [Compound 386, (7S)-7-Cyclopropyl-4,8-dimethyl-2-(((1-((6-(trifluoromethyl)pyridin-3-yl)methyl)-1H-pyrazol-4-yl)methyl)amino)-7,8-dihydropteridin-6(5H)-one] | 19%
Cc1nc(NCc2cnn(Cc3ccc(C(F)(F)F)nc3C(C)C)c2)nc2c1NC(=O)[C@H](C)N2C [Compound 388, (7S)-2-(((1-((2-isopropyl-6-(trifluoromethyl)pyridin-3-yl)methyl)-1H-pyrazol-4-yl)methyl)amino)-4,7,8-trimethyl-7,8-dihydropteridin-6(5H)-one] | 13%
CCN1c2nc(NCc3cnn(Cc4ccc(C(F)(F)F)nc4)c3)nc(C)c2NC(=O)[C@@H]1C [Compound 395, (7S)-8-Ethyl-4,7-dimethyl-2-(((1-((6-(trifluoromethyl)pyridin-3-yl)methyl)-1H-pyrazol-4-yl)methyl)amino)-7,8-dihydropteridin-6(5H)-one] | 19%
Cc1nc(NCc2cnn(Cc3cc(C(F)(F)F)nn3C)c2)nc2c1NC(=O)[C@H](C1CC1)N2C [Compound 396, (7S)-7-Cyclopropyl-4,8-dimethyl-2-(((1-((1-methyl-3-(trifluoromethyl)-1H-pyrazol-5-yl)methyl)-1H-pyrazol-4-yl)methyl)amino)-7,8-dihydropteridin-6(5H)-one] | 23%
Cc1nc(NCc2cnn(Cc3cc(C(F)(F)F)nn3C)c2)nc2c1NC(=O)[C@H](C(C)C)N2C [Compound 397, (7S)-7-Isopropyl-4,8-dimethyl-2-(((1-((1-methyl-3-(trifluoromethyl)-1H-pyrazol-5-yl)methyl)-1H-pyrazol-4-yl)methyl)amino)-7,8-dihydropteridin-6(5H)-one] | 23%
Cc1nc(NCc2cnn(Cc3ccc(C(F)(F)F)nc3)c2)nc2c1NC(=O)C1(CCC1)N2C [Compound 398, 4′,8′-dimethyl-2′-(((1-((6-(trifluoromethyl)pyridin-3-yl)methyl)-1H-pyrazol-4-yl)methyl)amino)-5′,8′-dihydro-6′H-spiro[cyclobutane-1,7′-pteridin]-6′-one] | 83%
